Results published in ChEMBL document CHEMBL5338793, “Discovery of Pyrimidinediamine Derivatives as Potent Methuosis Inducers for the Treatment of Triple-Negative Breast Cancer” (J Med Chem, 2023).
Activity calls are given as the source filed them. No cut-off for these calls is given here.

Assays:
MDA-MB-468 [1] = experiment: Upregulation of Lamp1 level in human MDA-MB-468 cells incubated for 24 hrs by Western blot analysis; type: functional, cell-based; details: dose <= 1.5 µM
HCC1806 [2] = experiment: Induction of morphological changes in human HCC1806 cells assessed as intracellular vacuolization at 1 uM measured after 24 hrs in presence of 3-MA by microscopic analysis; type: functional, cell-based
MDA-MB-468 [3] = experiment: Induction of morphological changes in human MDA-MB-468 cells assessed as intracellular vacuolization at 1.5 uM pretreated with Baf-A1 followed by compound addition measured after 24 hrs by microscopic analysis; type: functional, cell-based
[4] = Toxicity in mouse xenografted with human HCC1806 cells assessed as body weight change at 2.5 to 5 mg/kg, ip administered every 2 days for 15 days; type: organism-based; details: in vivo, 360 h, dose 2.5-5 mg/kg, time 15 day
HCC1806 [5] = experiment: Antiproliferative activity against human HCC1806 cells assessed as inhibition of cell proliferation at 1 uM measured after 24 hrs in presence of 3-MA by SRB assay; type: functional, cell-based
MDA-MB-468 [6] = experiment: Upregulation of Rab7 level in human […] cells incubated for 24 hrs by Western blot analysis; type: functional, cell-based; details: dose <= 1.5 µM
MDA-MB-468 [7] = experiment: Induction of morphological changes in human MDA-MB-468 cells assessed as intracellular vacuolization at 1 uM incubated for 24 hrs by microscopic analysis; type: functional, cell-based
HCC1806 [8] = experiment: Antiproliferative activity against human HCC1806 cells assessed as inhibition of cell proliferation at 1 uM incubated for 24 hrs by SRB assay relative to control; type: functional
HCC1806 [9] = experiment: Induction of morphological changes in human HCC1806 cells assessed as intracellular vacuolization at 1.5 uM measured after 12 to 24 hrs by microscopic analysis; type: functional, cell-based; details: time 12-24 hrs
MDA-MB-468 [10] = experiment: Upregulation of Rab7 level in human MDA-MB-468 cells at 1.5 uM incubated for 24 hrs by immunofluorescence microscopy; type: functional, cell-based
MDA-MB-468 [11] = experiment: Upregulation of Lamp1 level in human MDA-MB-468 cells at 1.5 uM incubated for 24 hrs by immunofluorescence microscopy; type: functional, cell-based
HCC1806 [12] = experiment: Induction of morphological changes in human HCC1806 cells assessed as intracellular vacuolization at 0.5 uM incubated for 24 hrs by microscopic analysis; type: functional, cell-based
HCC1806 [13] = experiment: Induction of morphological changes in human HCC1806 cells assessed as intracellular vacuolization at 1 uM pretreated with Z-VAD-FMK followed by compound addition measured after 24 hrs by microscopic analysis; type: functional, cell-based
[14] = Toxicity in mouse xenografted with human HCC1806 cells assessed as drug tolerance at 2.5 to 5 mg/kg, ip administered every 2 days for 15 days; type: organism-based; details: in vivo, 360 h, dose 2.5-5 mg/kg, time 15 day
HCC1806 [15] = experiment: Induction of macropinocytosis in human HCC1806 cells at 1.5 uM incubated for 24 hrs by LY staining based live cell imaging analysis; type: functional
HCC1806 [16] = experiment: Upregulation of LC3-II level in human HCC1806 cells incubated for 24 hrs by Western blot analysis; type: functional, cell-based; details: dose <= 1.5 µM
HCC1806 [17] = experiment: Induction of morphological changes in human HCC1806 cells assessed as intracellular vacuolization at 1.5 uM pretreated with Baf-A1 followed by compound addition measured after 24 hrs by microscopic analysis; type: functional, cell-based
HCC1806 [18] = experiment: Upregulation of Lamp1 level in human HCC1806 cells incubated for 24 hrs by Western blot analysis; type: functional, cell-based; details: dose <= 1.5 µM
MDA-MB-468 [19] = experiment: Antiproliferative activity against human MDA-MB-468 cells assessed as inhibition of cell proliferation incubated for 24 hrs by SRB assay; type: functional, cell-based; details: MDA-MB-468, 24 h
HCC1806 [20] = experiment: Antiproliferative activity against human HCC1806 cells assessed as inhibition of cell proliferation incubated for 24 hrs by SRB assay; type: functional, cell-based; details: HCC1806, 24 h
HCC1806 [21] = experiment: Antiproliferative activity against human HCC1806 cells assessed as inhibition of cell proliferation at 1.5 uM pretreated with Baf-A1 followed by compound addition measured after 24 hrs by SRB assay; type: functional, cell-based
HCC1806 [22] = experiment: Upregulation of p62 level in human HCC1806 cells incubated for 24 hrs by Western blot analysis; type: functional, cell-based; details: dose <= 1.5 µM
MDA-MB-468 [23] = experiment: Antiproliferative activity against human MDA-MB-468 cells assessed as inhibition of cell proliferation at 1.5 uM pretreated with Baf-A1 followed by compound addition measured after 24 hrs by SRB assay; type: functional, cell-based
[24] = Toxicity in mouse xenografted with human HCC1806 cells assessed as effect on CR level at 2.5 to 5 mg/kg, ip administered every 2 days for 15 days; type: organism-based; details: in vivo, 360 h, dose 2.5-5 mg/kg, time 15 day
MDA-MB-468 [25] = experiment: Antiproliferative activity against human MDA-MB-468 cells assessed as inhibition of cell proliferation at 1 uM pretreated with Z-VAD-FMK followed by compound addition measured after 24 hrs by SRB assay; type: functional, cell-based
MDA-MB-468 [26] = experiment: Induction of morphological changes in human MDA-MB-468 cells assessed as intracellular vacuolization at 1 uM pretreated with Z-VAD-FMK followed by compound addition measured after 24 hrs by microscopic analysis; type: functional, cell-based
MDA-MB-468 [27] = experiment: Induction of macropinocytosis in human MDA-MB-468 cells at 1.5 uM incubated for 24 hrs by LY staining based live cell imaging analysis; type: functional
[28] = Toxicity in mouse xenografted with human HCC1806 cells assessed as effect on ALT level at 2.5 to 5 mg/kg, ip administered every 2 days for 15 days; type: organism-based; details: in vivo, 360 h, dose 2.5-5 mg/kg, time 15 day
HCC1806 [29] = experiment: Upregulation of Rab7 level in human HCC1806 cells incubated for 24 hrs by Western blot analysis; type: functional, cell-based; details: dose <= 1.5 µM
MDA-MB-468 [30] = experiment: Induction of morphological changes in human MDA-MB-468 cells assessed as intracellular vacuolization at 1 uM measured after 24 hrs in presence of 3-MA by microscopic analysis; type: functional, cell-based
MDA-MB-468 [31] = experiment: Induction of morphological changes in human MDA-MB-468 cells assessed as intracellular vacuolization incubated for 24 hrs by microscopic analysis; type: functional, cell-based; details: dose 0.5-1.5 µM
HCC1806 [32] = experiment: Upregulation of Rab7 level in human HCC1806 cells at 1.5 uM incubated for 24 hrs by immunofluorescence microscopy; type: functional, cell-based
184B5 [33] = experiment: Induction of morphological changes in human 184B5 cells assessed as intracellular vacuolization upto 2 uM incubated for 24 hrs by microscopic analysis; type: toxicity, cell-based; details: 184b5, 24 h
HCC1806 [34] = experiment: Upregulation of Lamp1 level in human HCC1806 cells at 1.5 uM incubated for 24 hrs by immunofluorescence microscopy; type: functional, cell-based
HCC1806 [35] = experiment: Induction of morphological changes in human HCC1806 cells assessed as intracellular vacuolization incubated for 24 hrs by microscopic analysis; type: functional, cell-based; details: dose 0.5-1.5 µM
184B5 [36] = experiment: Cytotoxicity against human 184B5 cells assessed as reduction in cell viability at 2 uM incubated for 24 hrs by SRB assay; type: toxicity, cell-based; details: 184b5, 24 h
[37] = Toxicity in mouse xenografted with human HCC1806 cells assessed as effect on AST level at 2.5 to 5 mg/kg, ip administered every 2 days for 15 days; type: organism-based; details: in vivo, 360 h, dose 2.5-5 mg/kg, time 15 day
HCC1806 [38] = experiment: Antiproliferative activity against human HCC1806 cells assessed as inhibition of cell proliferation at 2 uM incubated for 24 hrs by SRB assay relative to control; type: functional
HCC1806 [39] = experiment: Antiproliferative activity against human HCC1806 cells assessed as inhibition of cell proliferation at 1 uM pretreated with Z-VAD-FMK followed by compound addition measured after 24 hrs by SRB assay; type: functional, cell-based
MDA-MB-468 [40] = experiment: Induction of morphological changes in human MDA-MB-468 cells assessed as intracellular vacuolization at 0.5 uM incubated for 24 hrs by microscopic analysis; type: functional, cell-based
HCC1937 = experiment: Antiproliferative activity against human HCC1937 cells assessed as inhibition of cell proliferation incubated for 24 hrs by SRB assay; type: functional, cell-based; details: HCC1937, 24 h
MDA-MB-468 [41] = experiment: Antiproliferative activity against human MDA-MB-468 cells assessed as inhibition of cell proliferation at 1 uM measured after 24 hrs in presence of 3-MA by SRB assay; type: functional, cell-based
HCC1806 [42] = experiment: Antitumor activity against human HCC1806 cells xenografted in mouse assessed as tumor growth inhibition at 2.5 to 5 mg/kg, ip administered every 2 days for 15 days; type: functional, organism-based; details: dose 2.5-5 mg/kg, time 15.0 day
HCC1806 [43] = experiment: Induction of morphological changes in human HCC1806 cells assessed as rate of intracellular vacuolization at 1 uM incubated for 24 hrs by microscopic analysis relative to control; type: functional

COc1cc(Nc2nc(N3CCNCC3)ncc2SC)ccc1NC(=O)c1cccc(Br)n1
Activity (MDA-MB-468 [1]): Dose-Dependent Effect
Activity (HCC1806 [2]): Active
Activity (MDA-MB-468 [3]): inactive
Activity [4]: Non-Toxic
Activity (HCC1806 [5]): Active
Activity (MDA-MB-468 [6]): Dose-Dependent Effect
Activity (MDA-MB-468 [7]): Active
inhibition at 1 µM (HCC1806 [8]): 99.5%
Activity (HCC1806 [9]): Active
Activity (MDA-MB-468 [10]): Active
Activity (MDA-MB-468 [11]): Active
Activity (HCC1806 [12]): Active
Activity (HCC1806 [13]): Active
Activity [14]: Non-Toxic
Activity (HCC1806 [15]): Active
Activity (HCC1806 [16]): Dose-Dependent Effect
Activity (HCC1806 [17]): inactive
Activity (HCC1806 [18]): Dose-Dependent Effect
IC50 (MDA-MB-468 [19]): 920 nM
IC50 (HCC1806 [20]): 700 nM
Activity (HCC1806 [21]): inactive
Activity (HCC1806 [22]): Dose-Dependent Effect
Activity (MDA-MB-468 [23]): inactive
Activity [24]: Non-Toxic
Activity (MDA-MB-468 [25]): Active
Activity (MDA-MB-468 [26]): Active
Activity (MDA-MB-468 [27]): Active
Activity [28]: Non-Toxic
Activity (HCC1806 [29]): Dose-Dependent Effect
Activity (MDA-MB-468 [30]): Active
Activity (MDA-MB-468 [31]): Dose-Dependent Effect
Activity (HCC1806 [32]): Active
Activity (184B5 [33]): Non-Toxic
Activity (HCC1806 [34]): Active
Activity (HCC1806 [35]): Dose-Dependent Effect
Activity (184B5 [36]): Toxic
Activity [37]: Non-Toxic
inhibition at 2 µM (HCC1806 [38]): 7.07%
Activity (HCC1806 [39]): Active
Activity (MDA-MB-468 [40]): Active
IC50 (HCC1937): 1030 nM
Activity (MDA-MB-468 [41]): Active
Activity (HCC1806 [42]): Active
Activity (HCC1806 [43]): 78.3%
